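Protocol summary: plate cells (96-well), add compound at 5 concentrations, incubate 48 h, interpolate endpoints linearly. GI50: concentration for 50% inhibition of growth.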 Active and inactive are the calls of the source. Cut-off read from the data, not from the text of the source: active = GI50 up to about 1.1 µM and inactive = higher.
Columns and labels:
Test in all cases: DTP human tumour cell line panel, 48 h
HL-60 = test system: HL-60
RXF 631 = test system: RXF 631
SK-MEL-28 = test system: SK-MEL-28
IGROV-1 = test system: IGROV-1
HCC 2998 = test system: HCC 2998
HT-29 = test system: HT-29
ACHN = test system: ACHN
DLD-1 = test system: DLD-1
UACC-257 = test system: UACC-257
NCI-H522 = test system: NCI-H522
SW-620 = test system: SW-620
SF-295 = test system: SF-295
XF498 = test system: XF498
UACC-62 = test system: UACC-62
HCT-15 = test system: HCT-15
SK-MEL-5 = test system: SK-MEL-5
SN12C = test system: SN12C
OVCAR-3 = test system: OVCAR-3
786-0 = test system: 786-0
DMS-273 = test system: DMS-273
SF-268 = test system: SF-268
SNB-19 = test system: SNB-19
A549 = test system: A549
MOLT-4 = test system: MOLT-4
SF-539 = test system: SF-539
LXFL 529 = test system: LXFL 529
KM-20L2 = test system: KM-20L2
M14 = test system: M14
HCT-116 = test system: HCT-116
SK-MEL-2 = test system: SK-MEL-2
U-251 = test system: U-251
HOP-62 = test system: HOP-62
K562 = test system: K562
Malme-3M = test system: Malme-3M
NCI-H460 = test system: NCI-H460
OVCAR-4 = test system: OVCAR-4
OVCAR-8 = test system: OVCAR-8
EKVX = test system: EKVX
SNB-75 = test system: SNB-75
SNB-78 = test system: SNB-78
CCRF-CEM = test system: CCRF-CEM
RPMI-8226 = test system: RPMI-8226
UO-31 = test system: UO-31
TK-10 = test system: TK-10
OVCAR-5 = test system: OVCAR-5
RXF 393 = test system: RXF 393
HOP-92 = test system: HOP-92
COLO 205 = test system: COLO 205
NCI-H23 = test system: NCI-H23
M19-MEL = test system: M19-MEL
KM12 = test system: KM12

## O=C1CCC(=O)N1CNc1cccc(NCN2C(=O)CCC2=O)c1
HL-60
  GI50: 20.1 µM (inactive)
RXF 631
  GI50: > 100 µM (inactive)
SK-MEL-28
  GI50: > 100 µM (inactive)
IGROV-1
  GI50: 87.9 µM (inactive)
HCC 2998
  GI50: > 100 µM (inactive)
HT-29
  GI50: > 100 µM (inactive)
ACHN
  GI50: 71.4 µM (inactive)
DLD-1
  GI50: > 100 µM (inactive)
UACC-257
  GI50: 71.6 µM (inactive)
NCI-H522
  GI50: > 100 µM (inactive)
SW-620
  GI50: > 100 µM (inactive)
SF-295
  GI50: > 100 µM (inactive)
XF498
  GI50: > 100 µM (inactive)
UACC-62
  GI50: 48.5 µM (inactive)
HCT-15
  GI50: 61 µM
SK-MEL-5
  GI50: > 100 µM (inactive)
SN12C
  GI50: > 100 µM (inactive)
OVCAR-3
  GI50: > 100 µM (inactive)
786-0
  GI50: > 100 µM (inactive)
DMS-273
  GI50: 61.1 µM (inactive)
SF-268
  GI50: 70 µM (inactive)
SNB-19
  GI50: > 100 µM (inactive)
A549
  GI50: > 100 µM (inactive)
MOLT-4
  GI50: 52.6 µM (inactive)
SF-539
  GI50: > 100 µM (inactive)
LXFL 529
  GI50: 56.8 µM (inactive)
KM-20L2
  GI50: 11 µM (inactive)
M14
  GI50: > 100 µM (inactive)
HCT-116
  GI50: 64.3 µM (inactive)
SK-MEL-2
  GI50: > 100 µM (inactive)
U-251
  GI50: > 100 µM (inactive)
HOP-62
  GI50: > 100 µM (inactive)
K562
  GI50: 45.6 µM (inactive)
Malme-3M
  GI50: > 100 µM (inactive)
NCI-H460
  GI50: > 100 µM (inactive)
OVCAR-4
  GI50: > 100 µM (inactive)
OVCAR-8
  GI50: > 100 µM (inactive)
EKVX
  GI50: > 100 µM (inactive)
SNB-75
  GI50: 12.9 µM (inactive)
SNB-78
  GI50: > 100 µM (inactive)
CCRF-CEM
  GI50: 29.6 µM (inactive)
RPMI-8226
  GI50: 17.3 µM (inactive)
UO-31
  GI50: > 100 µM (inactive)
TK-10
  GI50: > 100 µM (inactive)
OVCAR-5
  GI50: > 100 µM (inactive)
RXF 393
  GI50: > 100 µM (inactive)
HOP-92
  GI50: > 100 µM (inactive)
COLO 205
  GI50: > 100 µM (inactive)
NCI-H23
  GI50: > 100 µM (inactive)
M19-MEL
  GI50: > 100 µM (inactive)
KM12
  GI50: > 100 µM (inactive)
